The text below walks through data of PubChem BioAssay (NCI).

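96-well plates; 48 h exposure; 5 concentrations. Endpoints by linear interpolation between flanking doses. Not reached: highest tested concentration assigned. Definition used: TGI = concentration required for complete inhibition of growth.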

Test systems include ACHN renal; BT-549 breast; RPMI-8226 leukemia; COLO 205 colon; SK-OV-3 ovarian; HCC-2998 colon; HCT-116 colon; OVCAR-4 ovarian; LOX IMVI melanoma; HCT-15 colon; HOP-92 NSCLC; OVCAR-5 ovarian; SR leukemia.
What all share (experiment): NCI tumour cell line growth inhibition, 48 h

With `O=[N+]([O-])/C=C/c1cccc(F)c1`, the TGI was determined as 6.84 µM in the test on ACHN renal; 4.91 µM with BT-549 breast; 4.14 µM with RPMI-8226 leukemia; 8.02 µM with COLO 205 colon; 28.2 µM in the test on SK-OV-3 ovarian; 31.6 µM in the test on HCC-2998 colon. Further, the TGI was 8.86 µM with HCT-116 colon; 16.8 µM in the test with OVCAR-4 ovarian; more than 100 µM in the test on LOX IMVI melanoma; 5.6 µM in the test on HCT-15 colon; 27.6 µM in the test on HOP-92 NSCLC.

In the case of `C=C(/C=C/C=C(/CCC=C(C)C)COC(C)=O)[C@@H]1CC[C@]2([C@H](CCCO)/C(=C(/C)C=O)CC[C@]2(C)O)[C@@H]1O`, the TGI in the test on ACHN renal amounted to 27.6 µM; in the test on OVCAR-5 ovarian, 53.7 µM; in the test on COLO 205 colon, 7.06 µM; in the test on SK-OV-3 ovarian, 54.5 µM; in the test on HCC-2998 colon it was 20.3 µM; with HCT-116 colon, 45.6 µM. Also, the results for the TGI with LOX IMVI melanoma and in the test on HCT-15 colon were 27.4 µM and 30.4 µM, respectively.

As for `C[n+]1ccccc1/C=C/c1ccc2c(c1)OCO2`, the TGI in the test on ACHN renal, with BT-549 breast, with OVCAR-5 ovarian, in the test on RPMI-8226 leukemia, with SR leukemia and with COLO 205 colon was more than 10 µM each time. Also, the TGI in the test with SK-OV-3 ovarian, with HCC-2998 colon, in the test with HCT-116 colon, with OVCAR-4 ovarian, in the test on LOX IMVI melanoma and with HCT-15 colon was more than 10 µM in each case.

On to `NC(=O)c1nnc2cc(F)c(F)cc2c1N`, for which the TGI in the test with ACHN renal is more than 100 µM; in the test on BT-549 breast, 45.6 µM; in the test on OVCAR-5 ovarian, more than 100 µM; in the test on RPMI-8226 leukemia, more than 100 µM; in the test on SR leukemia, more than 100 µM; with COLO 205 colon, more than 100 µM. Moreover, the TGI is 82.4 µM with SK-OV-3 ovarian; more than 100 µM in the test on HCC-2998 colon; more than 100 µM in the test with HCT-116 colon; more than 100 µM with OVCAR-4 ovarian; more than 100 µM in the test with LOX IMVI melanoma; more than 100 µM with HCT-15 colon.

`COc1cc2c(cc1OC)C(C1(O)CCCCC1)NCC2` (centres undefined): the TGI in the test on ACHN renal, in the test on OVCAR-5 ovarian, in the test with RPMI-8226 leukemia, in the test on SR leukemia, in the test on COLO 205 colon and in the test on SK-OV-3 ovarian was more than 100 µM each time. Moreover, the TGI in the test with HCC-2998 colon, in the test on HCT-116 colon, with LOX IMVI melanoma, in the test with HCT-15 colon and in the test on HOP-92 NSCLC was more than 100 µM throughout.

Turning to `CC1(C)[C@@H]2C[C@H]1C(Cc1ccccc1C[C@H]1c3cc(-c4ccccn4)ncc3[C@H]3C[C@@H]1C3(C)C)c1cc(-c3ccccn3)ncc12` (some centres undefined), the TGI in the test with ACHN renal is 4.83 µM; in the test with BT-549 breast it was more than 31.6 µM; with OVCAR-5 ovarian it was more than 100 µM; in the test with RPMI-8226 leukemia, 3.33 µM; with SR leukemia it was 1.28 µM; in the test on COLO 205 colon, more than 100 µM. The TGI is more than 100 µM in the test with SK-OV-3 ovarian; 39.8 µM in the test with HCC-2998 colon; 10.1 µM in the test with HCT-116 colon; more than 100 µM with OVCAR-4 ovarian; 1.48 µM with LOX IMVI melanoma; more than 100 µM in the test with HCT-15 colon.

`Nc1nc(Cl)cc(NCCCCO)n1`: the TGI in the test on ACHN renal, in the test on OVCAR-5 ovarian, in the test on RPMI-8226 leukemia, in the test on SR leukemia, in the test with COLO 205 colon and in the test on SK-OV-3 ovarian was more than 100 µM in each case. Moreover, the TGI in the test on HCC-2998 colon, with HCT-116 colon, in the test with OVCAR-4 ovarian, with LOX IMVI melanoma, with HCT-15 colon and with HOP-92 NSCLC was more than 100 µM in each case.

Turning to `CCCNCC(O)/C=C/[Si](C)(C)C` (centres undefined) (tested in a mixture with another compound), the TGI in the test with ACHN renal, in the test with OVCAR-5 ovarian, in the test with RPMI-8226 leukemia, in the test with SR leukemia, in the test with COLO 205 colon and in the test on SK-OV-3 ovarian was more than 100 µM each time. Also, the TGI with HCC-2998 colon, in the test with HCT-116 colon, in the test on LOX IMVI melanoma, with HCT-15 colon and in the test on HOP-92 NSCLC was more than 100 µM in each case.

For `Cc1ccccc1N=Nc1ccc(N=Nc2c(O)ccc3cc(S(=O)(=O)O)cc(S(=O)(=O)O)c23)c(C)c1`, the TGI in the test on ACHN renal, with BT-549 breast, in the test on OVCAR-5 ovarian, in the test on RPMI-8226 leukemia, in the test on SR leukemia and in the test with COLO 205 colon was more than 100 µM throughout. In addition, the TGI in the test with SK-OV-3 ovarian, in the test with HCC-2998 colon, with HCT-116 colon, with OVCAR-4 ovarian, with HCT-15 colon and in the test on HOP-92 NSCLC was more than 100 µM throughout.

Take `Cc1nnc2sc(-c3ccc(N)cc3)nn12`: the TGI with ACHN renal, with OVCAR-5 ovarian, in the test on RPMI-8226 leukemia, with SR leukemia, with COLO 205 colon and in the test on SK-OV-3 ovarian was more than 100 µM throughout. For the same molecule, the TGI in the test with HCC-2998 colon, with HCT-116 colon, with OVCAR-4 ovarian, in the test with HCT-15 colon and in the test with HOP-92 NSCLC was more than 100 µM throughout.

For `Cc1c(Cl)c(S(N)(=O)=O)cc(S(N)(=O)=O)c1NC(=O)c1ccc(Cl)cc1`, the TGI in the test on ACHN renal, in the test with BT-549 breast, in the test with OVCAR-5 ovarian, with RPMI-8226 leukemia, in the test with COLO 205 colon and in the test with SK-OV-3 ovarian was more than 100 µM throughout. The TGI with HCC-2998 colon, in the test with HCT-116 colon, in the test with OVCAR-4 ovarian, in the test on LOX IMVI melanoma, in the test on HCT-15 colon and in the test with HOP-92 NSCLC was more than 100 µM each time.
